The source of these data is patent US9593146B2, “CD44v6-derived peptides for treating metastasizing cancer” (AMCURE GMBH, priority 2012, dated 2017).

One experiment concerns HT29 cells. Briefly: HGF induced scattering of HT29 cells. It counts as cell-based, human. The conditions noted are these: HT29, HGF 50 ng/ml 24 h, human peptides prior to induction (FIG. 17). As to the method:
FIG. 17: The human CD44 v6 specific peptides block HGF induced cell scattering and invasion into matrigel. Scattering of HT29 cells was determined in 24-well plates. First, 4.5×10^4 cells were seeded at 37° C.; after 24 h the cells were serum starved for additional 24 h. the cells were either left untreated (control) or later treated with HGF (50 ng/ml) for 24 h. Where indicated the cells were treated with the v6 specific peptide (human v6 5mer, 10mer, 14mer) or control peptide prior to induction with HGF for 30 min. Pictures were made using phase contrast microscopy. Magnification 40×.
A scatter assay was performed additionally. HT29 colon cancer cells were grown in medium containing 10% FCS. One day after seeding, the cells were starved. On the third day, the cells were induced with HGF (10 ng/ml) and pre-incubated with either no peptide, ctrl-peptides (SEQ ID No.: 15), non-pegylated v6-peptides (SEQ ID No.: 11) or the pegylated peptides, namely PEG-rat control peptide and PEG-rat CD44v6 peptide.
Scattering of HT29 cells was determined in 24-well plates. First, 4×10^5 cells were seeded at 37° C.; the cells were either left untreated or 48 h later treated with HGF (50 ng/ml) for 24 h or with PEGylated or non-PEGylated peptides (100 ng/ml) prior to HGF induction for 30 min.

A further experiment relates to HUVEC. Briefly: HUVEC spheroid sprouting assay. The class given is cell-based, human. Conditions: 100 ng/ml peptide, VEGFs 40 ng/ml, 48 h. As to the method:
FIG. 19: Spheroids of HUVECs (750 cells) were generated in hanging drops. They were suspended in Endothelial Cell Growth Medium containing 1 mg/ml rat tail collagen I and 0.6% (wt/vol) methylcellulose and distributed in 48-well plates (30 spheroids/well). After solidification at 37° C. the mixture was overlaid with Endothelial Cell Growth Medium containing 100 ng/ml v6 peptide (human v6 14mer) or control peptide and VEGFs (40 ng/ml). Pictures were taken 48 h later and sprouting was quantified with the computer program ImageJ.
Clusters of HUVEC cells, so-called spheroids, were generated in hanging drops and embedded in a three-dimensional collagen matrix. They were overlaid with medium containing the blocking substances and the growth factors. Activated by the growth factors VEGF-A165 and VEGF-A121 the ECs started to grow out of the spheroids (FIG. 19). […] Sprouting of the ECs was quantified by analysing the total length of all sprouts originating from one spheroid.

The test system of another experiment is VEGFR-2. Briefly: VEGF-A165 induced activation of VEGFR-2 and Erk in endothelial cells. It counts as cell-based, human. The conditions noted are these: HUVEC, HAOEC and HCMEC. As to the method:
FIG. 13: Activation of VEGFR-2 and signal transduction induced by VEGF-A165 depends on CD44v6. Different ECs (HUVEC, HAOEC and HCMEC) were serum starved and incubated with several reagents (αCD44v6, v6 14mer and the controls IgG and ctrl pep). The cells were then induced with VEGF-A165 and lysed. The cell lysates were loaded on SDS-PAGE and subjected to Western blot analysis. Activation of the receptor tyrosine kinase VEGFR-2 and of its downstream target Erk was detected by means of antibodies that detect phosphorylated forms of VEGFR-2 and Erk. The loading control was performed with antibodies recognising total VEGFR-2 and Erk levels. The numbers indicate the fold induction as calculated with the computer programme ImageJ.
In order investigate if an isoform of CD44 is necessary for VEGFR-2 activation, the three tools inhibiting CD44v6 activity were used in an experiment where VEGFR-2 was activated by VEGF-A165. As expected all ECs responded to VEGF-A165 treatment with VEGFR-2 phosphorylation and signal transduction to Erk. […] Thus CD44v6 is also necessary for a functional VEGF-A165/VEGFR-2 system in these cells.

The next experiment deals with L3.6pl cells. Briefly: Human orthotopic model of pancreatic cancer, L3.6pl cells in nude mice. It counts as in vivo. As to the method:
In the case of the human orthotopic model, L3.6pl pancreatic carcinoma cells (passage 24-26) were suspended in Hank's balanced salt solution (Invitrogen, Karlsruhe, Germany) after trypsinization. The cells were injected orthotopically in the pancreas of male nude mice as described (Bruns C J et al. (1999) Neoplasia 1(1):50-62). Two groups of 15 mice each were injected i.p. 7 days later with either the human v6 peptide respectively rat control peptide (20 μg). For all experiments described and depicted herein either the rat 14mer control peptide or the human 14mer peptide were used. All experiments were then repeated with the rat 5mer control peptide or the human 5mer peptide (N-R-W-H-E, SEQ ID NO: 2). […] The injection was repeated three times per week for 21 days. Two days after the last treatment the animals were killed. […]
A comparison of different CD44v6 peptide derivatives was performed in animals bearing a orthotopic L3.6pl tumor. 10 groups of 5 animals each received a dose of 20 μg peptide per injection three times per week for 3 weeks with the compounds listed in Table 4. Three weeks after starting the treatment the animals were sacrificed and analyzed for macroscopic metastases and tumor volume.

[1] abbreviates: 20 μg i.p. three times per week for three weeks, start 7 days after implantation.

With “KEQWFGNRWHEGYR [human 14mer, human CD44v6 14mer peptide]”, the “HGF induced scattering or invasion through the extracellular matrix” value in the experiment on HT29 cells was “prevented completely scattering or invasion through the extracellular matrix”. In addition, in the experiment on HUVEC, the “sprouting in response to VEGF-A (VEGF-A165, VEGF-A121)” value was “blocked completely”. Further, the “VEGFR-2 activation and downstream signaling to Erk induced by VEGF-A165” value in the experiment with VEGFR-2 was “blocked VEGFR-2 activation and downstream signaling to Erk”. In addition, the “metastatic spreading at 10 μg” value with L3.6pl cells (10 μg per injection, three times per week for 3 weeks) was “complete inhibition of metastatic spreading”. Moreover, the “tumor angiogenesis (vessel number and vessel size, CD31)” value in the experiment with L3.6pl cells (20 μg i.p. three times per week for three weeks) is on record as “decreased angiogenesis”. In addition, in the experiment with L3.6pl cells (setting [1]), the “Met activation in the tumor (phospho-Met immunofluorescence)” value is recorded as “completely repressed Met activation” and the “outgrowth of the primary tumor in the pancreas” value is reported as “strongly repressed”. In addition, in the experiment with L3.6pl cells (20 μg i.p. three times per week for three weeks, start 7 days after implantation, listed as SEQ ID No.: 6), the “metastasis formation (liver)” value is reported as “capable of inhibiting metastasis”. In addition, the “metastasis formation (liver)” value in the experiment with L3.6pl cells (20 μg i.p. three times per week for three weeks, start 7 days after implantation, listed as human-specific peptide) is “completely inhibited metastasis formation within the liver”. In addition, in the experiment on L3.6pl cells (20 μg per injection three times per week for 3 weeks (FIG. 23A)), the “reduction of tumor size, ranking (side-by-side comparison)” value is “strongest reduction of tumor size”. In addition, the “variability in the individual tumor size within the group” value in the experiment with L3.6pl cells (20 μg per injection three times per week for 3 weeks (FIG. 23B)) is reported as “low variability”. In addition, in the experiment on L3.6pl cells (20 μg per injection three times per week for 3 weeks (FIG. 24)), the “metastatic spreading to the liver (side-by-side comparison)” value was “complete inhibition of metastasis”. Besides, the “tumor growth compared to the control peptide (side-by-side comparison)” value in the experiment on L3.6pl cells (20 μg per injection three times per week for 3 weeks, 5 animals per group) is “significant reduction in tumor growth”. Besides, in the experiment on L3.6pl cells (0.2 and 2 μg per injection, three times per week for 3 weeks), the “liver metastases at 0.2 and 2 μg” value is “showed liver metastases but the average number of metastases per animal was reduced”. For the same sequence, the “size / growth of the primary tumor (dose reduction study)” value in the experiment with L3.6pl cells (three injections per week for 3 weeks, compared to control groups (FIG. 22C)) was “significant decrease of the size of the primary tumor”.
